Common to all, as to type: cell-based
Series [1] concerns Mycobacterium tuberculosis, strain H37Ra. Put plainly: Antimycobacterial activity against M. tuberculosis H37Ra (luminescence, dose-response). The following applies: for IC50: Mycobacterium tuberculosis, 168 h, H37Ra lux, luminescence at day 7, top concentration 64 μM; for activity against Mtb H37Ra (in words): SAR discussion; for SI (selectivity index): calculated with the formula CC50/IC50 (MRC-5 cytotoxicity / H37Ra).

Series [2] is described as follows: In vitro cytotoxicity, resazurin assay. The conditions noted are these: human, MRC-5 fibroblast cells (ATCC CCL-171), 3 days exposure. The protocol:
In vitro cytotoxicity was evaluated on the MRC-5 Homo sapiens […] fibroblast cell line (ATCC CCL-171). The MRC-5 cells were cultured in 75 cm^2 sterile Dulbecco’s modified Eagle’s medium (DMEM) supplemented with 10% heat-inactivated fetal calf serum in a 5% CO2 atmosphere at 37 °C. When a semiconfluent layer of cells was formed, the cells were trypsinized, washed with sterile PBS, seeded into a transparent, flat-bottomed 96-well plate at a density of 4 × 10^4 cells per well and left for recovery at 37 °C, 5% CO2 for at least 24 h. For each compound, a 2-fold serial dilution was made in complete DMEM with final concentrations ranging from 128 μM to 0.5 μM. Subsequently, the MRC-5 cells were exposed to the compounds by adding 100 μL of the serial dilutions to the wells. Test plates were incubated for 3 days in an atmosphere of 5% CO2 at 37 °C. For the resazurin assay, the cells were washed 2 times with 200 μL PBS, and 100 μL resazurin working solution was added per well. Subsequently, the plates were incubated at 37 °C, 5% CO2 for 3 h. To monitor the viable cell number after compound exposure, each well was analyzed using a microplate fluorometer equipped with a 560 nm excitation/590 nm emission filter set.
A general note: Resazurin is reduced to fluorescent resorufin, in cell work by metabolically active cells.

For the next series, the system named is Mycobacterium abscessus. In words: microbe, parasite or virus in culture. The following applies: Mycobacteroides abscessus, 72 h, read-out: IC50 against M. abscessus.

Structures are written as SMILES. Where only a bound is given, the exact number is not on record here.

One may read the IC50 as the point on the concentration scale where inhibition reaches its midpoint.

With `CCOc1ccc2cc(-c3c(NCc4ccccn4)c(=O)c3=O)ccc2c1` [Compound 6w, 3-(6-Ethoxynaphthalen-2-yl)-4-((pyridin-2-ylmethyl)amino)cyclobut-3-ene-1,2-dione], in series [1], the concentration for half-maximal inhibition (IC50) is > 64 µM and the “activity against Mtb H37Ra (in words)” value is “completely inactive”.

For `O=c1c(NCc2ccccn2)c(-c2ccsc2)c1=O` [Compound 6y, 3-((Pyridin-2-ylmethyl)amino)-4-(thiophen-3-yl)cyclobut-3-ene-1,2-dione], the IC50 in series [1] was > 64 µM.

As to `O=c1c(NCc2ccccn2)c(-c2ccc3c(c2)OCO3)c1=O` [Compound 6u, 3-(Benzo[d][1,3]dioxol-5-yl)-4-((pyridin-2-ylmethyl)amino)cyclobut-3-ene-1,2-dione], in series [1], the IC50 is 19.9 µM and the “SI (selectivity index)” value is > 3.2. For the compound `O=c1c(NCc2ccccn2)c(-c2ccc(OCc3ccccc3)c(Cl)c2)c1=O` [Compound 6k, 3-(4-(Benzyloxy)-3-chlorophenyl)-4-((pyridin-2-ylmethyl)amino)cyclobut-3-ene-1,2-dione], in series [1], the IC50 was > 64 µM. As for `O=c1c(NCc2ccccn2)c(-c2ccc(O)cc2)c1=O` [Compound 6c, 3-(4-Hydroxyphenyl)-4-((pyridin-2-ylmethyl)amino)cyclobut-3-ene-1,2-dione], in series [1], half-maximal inhibition (IC50) was put at 21.9 µM and the “SI (selectivity index)” value is listed as > 2.9.

Consider `O=c1c(NCc2ccccn2)c(-c2ccc(Cl)cc2C(F)(F)F)c1=O` [Compound 6m, 3-(4-Chloro-2-(trifluoromethyl)phenyl)-4-((pyridin-2-ylmethyl)amino)cyclobut-3-ene-1,2-dione], for which, in series [1], the IC50 is > 64 µM. Regarding `CCCOc1ccc(-c2c(NCc3ccccn3)c(=O)c2=O)c(F)c1F` [Compound 6p, 3-(2,3-Difluoro-4-propoxyphenyl)-4-((pyridin-2-ylmethyl)amino)cyclobut-3-ene-1,2-dione], in series [1], the IC50 was > 64 µM and the “activity against Mtb H37Ra (in words)” value is “completely inactive”.

`O=c1c(NCc2ccccn2)c(-c2ccc(OCc3ccc(F)cc3)cc2)c1=O` [Compound 6j, 3-(4-((4-Fluorobenzyl)oxy)phenyl)-4-((pyridin-2-ylmethyl)amino)cyclobut-3-ene-1,2-dione]: the IC50 in series [1] was > 64 µM. For `CCOc1c(C)cc(-c2c(NCc3ccccn3)c(=O)c2=O)cc1C` [Compound 6r, 3-(4-Ethoxy-3,5-dimethylphenyl)-4-((pyridin-2-ylmethyl)amino)cyclobut-3-ene-1,2-dione], in series [1], the IC50 was determined as 13.5 µM and the “SI (selectivity index)” value is > 4.7. On to `COc1ccc(-c2c(NCc3ccccn3)c(=O)c2=O)c(F)c1F` [Compound 6o, 3-(2,3-Difluoro-4-methoxyphenyl)-4-((pyridin-2-ylmethyl)amino)cyclobut-3-ene-1,2-dione], for which, in series [1], the IC50 is > 64 µM. Consider `O=c1c(NCc2ccccn2)c(-c2ccc(Br)cc2)c1=O` [Compound 6b, 3-(4-Bromophenyl)-4-((pyridin-2-ylmethyl)amino)cyclobut-3-ene-1,2-dione], for which, in series [1], 3.49 µM corresponded to half-maximal inhibition (IC50) and the “SI (selectivity index)” value is reported as > 18.3.

As to `Cc1ccc(-c2c(NCc3ccccn3)c(=O)c2=O)s1` [Compound 6z, 3-(5-Methylthiophen-2-yl)-4-((pyridin-2-ylmethyl)amino)cyclobut-3-ene-1,2-dione], in series [1], inhibition was half-maximal at 2.98 µM (IC50) and the “SI (selectivity index)” value is listed as > 21.5.

In the case of `O=c1c(NCc2ccccn2)c(-c2ccc(Oc3ccccc3)cc2)c1=O` [Compound 6h, 3-(4-Phenoxyphenyl)-4-((pyridin-2-ylmethyl)amino)cyclobut-3-ene-1,2-dione], the concentration for half-maximal inhibition (IC50) in series [1] is > 64 µM. On the same count and under the same terms, the same measure for `COc1nc2ccc(Br)cc2cc1[C@@H](c1ccccc1)[C@@](O)(CCN(C)C)c1cccc2ccccc12` [Bedaquiline, reference compound]: 0.01 µM. Consider `COc1ccc(-c2c(NCc3ccccn3)c(=O)c2=O)cc1Cl` [Compound 6l, 3-(3-Chloro-4-methoxyphenyl)-4-((pyridin-2-ylmethyl)amino)cyclobut-3-ene-1,2-dione], for which, in series [1], it took 1.51 µM to reach half-maximal inhibition (IC50) and the “SI (selectivity index)” value is > 42.4. For `O=c1c(NCc2ccccn2)c(-c2ccc(F)c(F)c2)c1=O` [Compound 6n, 3-(3,4-Difluorophenyl)-4-((pyridin-2-ylmethyl)amino)cyclobut-3-ene-1,2-dione] the same measures were 2.46 µM and > 26.0. With `O=c1c(NCc2ccccn2)c(-c2ccc(OCc3ccccc3)cc2)c1=O` [Compound 6i, 3-(4-(Benzyloxy)phenyl)-4-((pyridin-2-ylmethyl)amino)cyclobut-3-ene-1,2-dione], the IC50 in series [1] is > 64 µM.

In the case of `CCCCOc1ccc(-c2c(NCc3ccccn3)c(=O)c2=O)c(F)c1F` [Compound 6q, 3-(4-Butoxy-2,3-difluorophenyl)-4-((pyridin-2-ylmethyl)amino)cyclobut-3-ene-1,2-dione], in series [1], the IC50 is > 64 µM and the “activity against Mtb H37Ra (in words)” value was “completely inactive”. In turn, `CC/C(=C(\c1ccccc1)c1ccc(OCCN(C)C)cc1)c1ccccc1` [Tamoxifen] showed an IC50 at 3 days in series [2] of 12.3 µM. In the case of `O=c1c(NCc2ccccn2)c(-c2ccoc2)c1=O` [Compound 6x, 3-(Furan-3-yl)-4-((pyridin-2-ylmethyl)amino)cyclobut-3-ene-1,2-dione], in series [1], the 50% inhibitory concentration (IC50) worked out at 29.1 µM and the “SI (selectivity index)” value is on record as > 2.2.

As to `O=c1c(NCc2ccccn2)c(-c2ccc(OC(F)(F)F)cc2)c1=O` [Compound 6d, 3-((Pyridin-2-ylmethyl)amino)-4-(4-(trifluoromethoxy)phenyl)cyclobut-3-ene-1,2-dione], in series [1], half-maximal inhibition (IC50) required 13.8 µM and the “SI (selectivity index)” value is listed as > 4.6.

On to `O=c1c(NCc2ccccn2)c(-c2ccc3c(c2)OCCO3)c1=O` [Compound 6v, 3-(2,3-Dihydrobenzo[b][1,4]dioxin-6-yl)-4-((pyridin-2-ylmethyl)amino)cyclobut-3-ene-1,2-dione], for which, in series [1], half-maximal inhibition (IC50) required 3.37 µM and the “SI (selectivity index)” value was > 19.0. On to `COc1ccc(-c2c(NCc3ccccn3)c(=O)c2=O)c2ccccc12` [Compound 6t, 3-(4-Methoxynaphthalen-1-yl)-4-((pyridin-2-ylmethyl)amino)cyclobut-3-ene-1,2-dione], for which, in series [1], the IC50 was > 64 µM. `COc1c(N2C[C@@H]3CCCN[C@@H]3C2)c(F)cc2c(=O)c(C(=O)O)cn(C3CC3)c12` [Moxifloxacin]: the half-inhibitory concentration (IC50) in the series on Mycobacterium abscessus was found to be 1.74 µM. Turning to `CSc1ccc(-c2c(NCc3ccccn3)c(=O)c2=O)cc1` [Compound 6e, 3-(4-(Methylthio)phenyl)-4-((pyridin-2-ylmethyl)amino)cyclobut-3-ene-1,2-dione], in series [1], it took 4.56 µM to reach half-maximal inhibition (IC50) and the “SI (selectivity index)” value is > 14.0.

Turning to `CC(C)(C)Oc1ccc(-c2c(NCc3ccccn3)c(=O)c2=O)cc1` [Compound 6f, 3-(4-(tert-Butoxy)phenyl)-4-((pyridin-2-ylmethyl)amino)cyclobut-3-ene-1,2-dione], in series [1], the half-inhibitory concentration (IC50) came out at 4.67 µM and the “SI (selectivity index)” value is reported as > 13.7. For `O=c1c(NCc2ccccn2)c(-c2cccc3ccccc23)c1=O` [Compound 6s, 3-(Naphthalen-1-yl)-4-((pyridin-2-ylmethyl)amino)cyclobut-3-ene-1,2-dione], the IC50 in series [1] is > 64 µM. On to `COCCOc1ccc(-c2c(NCc3ccccn3)c(=O)c2=O)cc1` [Compound 6g, 3-(4-(2-Methoxyethoxy)phenyl)-4-((pyridin-2-ylmethyl)amino)cyclobut-3-ene-1,2-dione], for which, in series [1], the half-maximal inhibitory concentration (IC50) amounted to 8.69 µM and the “SI (selectivity index)” value is > 7.4.

For the compound `Cc1ccc(-c2c(NCc3ccccn3)c(=O)c2=O)cc1` [Compound 6a, 3-((Pyridin-2-ylmethyl)amino)-4-(p-tolyl)cyclobut-3-ene-1,2-dione], in series [1], the IC50 is 2.01 µM and the “SI (selectivity index)” value is reported as > 31.8.
